This note sets out measurements from ChEMBL document CHEMBL1141251, “Anthelmintic macrolactams from Nonomuraea turkmeniaca MA7364” (2007).

For assay [1], the system named is Haemonchus contortus. The assay can be described thus: Anthelmintic activity against Haemonchus contortus assessed as reduction in L3 larval motility. Format: functional.
For assay [2], the system named is Heligmosomoides polygyrus. The assay can be described thus: Anthelmintic activity in Heligmosomoides polygyrus infected Swiss Webster mouse assessed as reduction in worm count at 50 mg/kg, sc on day 3 relative to control. More on the design: scale not given: the % may be the effect or the level left. In kind it is functional.

Each structure is given as a SMILES string. ≈ marks a conversion by molar mass, not a printed value. Calls of active or inactive are those of the source. No cut-off for these calls is given here.

By EC90 is commonly meant the concentration at which the effect reaches the 90% level.

As to `CCC1CCCNC(=O)[C@H](C)[C@@H](O[C@@H]2O[C@@H](C)[C@@H](O)[C@@H](NC)[C@H]2O)CCC(C)CCC1` (some centres undefined), the concentration for an effect of 90% (EC90) in assay [1] came to 29 µg/mL (≈ 65.5 µM). In addition, in assay [2] (route subcutaneous), the Activity was 42%.

Consider `CCC1CCCCCC[C@H](O[C@@H]2O[C@@H](C)[C@@H](O)[C@@H](NC)[C@H]2O)[C@@H](C)C(=O)NCCC1` (some centres undefined), for which the 90% effect concentration (EC90) in assay [1] worked out at 15 µg/mL (≈ 35 µM). Also, in assay [2], the outcome was inactive.
